Laboratory results published in PubChem BioAssay (NCI).
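Protocol summary: plate cells (96-well), add compound at 5 concentrations, incubate 48 h, interpolate endpoints linearly. Here, GI50 denotes the concentration required for 50% inhibition of growth. TGI: concentration producing complete growth inhibition.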

What was measured:
Test in all cases: inhibition of tumour cell growth, NCI panel, 48 h
[1] = system: HCT-116 colon
[2] = system: UO-31 renal
[3] = system: OVCAR-3 ovarian
[4] = system: K-562 leukemia
[5] = system: SN12C renal
[6] = system: 786-0 renal
[7] = system: LOX IMVI melanoma
[8] = system: CAKI-1 renal
[9] = system: SR leukemia

Compound | TGI [1] [µM] | TGI [2] [µM] | TGI [3] [µM] | TGI [4] [µM] | TGI [5] [µM] | TGI [6] [µM] | TGI [7] [µM] | TGI [8] [µM] | GI50 [2] [µM] | GI50 [5] [µM] | GI50 [6] [µM] | TGI [9] [µM] | GI50 [3] [µM] | GI50 [4] [µM] | GI50 [9] [µM] | GI50 [7] [µM] | GI50 [8] [µM]
COC/C=C\COC | > 100 | > 100 | > 100 | > 100 | > 100 | > 100 | > 100 | > 100 | – | – | – | – | – | – | – | – | –
C=C(CC(NC(=O)c1ccc(C(CC)Cc2cnc3nc(N)nc(N)c3n2)cc1)C(=O)O)C(=O)O (centres undefined) | > 100 | > 100 | – | > 100 | > 100 | 5.17 | > 100 | – | 0.0271 | 0.0205 | 0.0257 | > 100 | – | – | – | – | –
Cc1ccc(NC(=O)CCc2nc(N)nc(N)c2-c2ccccc2)cc1C | > 100 | > 100 | > 100 | > 100 | > 100 | > 100 | – | > 100 | – | – | – | > 100 | – | – | – | – | –
COc1ccc(OC)c(NC(=O)CCC/C(CC(=O)c2ccc(O)c(OC)c2)=N\Nc2nnc(C)n2N)c1 | – | > 100 | > 100 | > 100 | > 100 | > 100 | > 100 | > 100 | – | – | – | > 100 | – | – | – | – | –
CC(C)(C)c1cc(C(O)(C(F)(F)F)C(F)(F)F)c2c(c1)C(C(F)(F)F)(C(F)(F)F)OC(C)(C(C)(C)C)N2 (centres undefined) | 13.4 | 21 | 9.18 | 12.7 | 16.8 | 11.6 | – | – | – | – | – | 8.45 | – | – | – | – | –
CCOC(=O)C(=O)Nc1ccccc1C | > 100 | > 100 | – | > 100 | > 100 | > 100 | > 100 | > 100 | – | – | – | – | – | – | – | – | –
O=C(Cc1nc2ccccc2c(=O)n1-c1ccccc1Cl)c1ccncc1 | > 100 | > 100 | > 100 | > 100 | > 100 | > 100 | > 100 | > 100 | – | – | – | – | – | – | – | – | –
COc1ccc(NC(=O)CC2SC(=Nc3ccccc3C)NC2=O)c([N+](=O)[O-])c1 (centres undefined) | > 100 | > 100 | > 100 | > 100 | > 100 | > 100 | > 100 | – | – | – | – | > 100 | – | – | – | – | –
COc1ccc(NC(=O)/C(=C/c2ccccc2)C(C)=O)cc1 | – | 29 | 29.9 | > 100 | 31.4 | 28.6 | 27.8 | 29.2 | – | – | – | – | – | – | – | – | –
COC(=O)/C=C(C)/C=C/C1OC(C)OCC1O (centres undefined) | – | > 100 | > 100 | > 100 | > 100 | > 100 | > 100 | > 100 | – | – | – | – | – | – | – | – | –
O=C(CCC(=O)Nc1ccc(Cl)c(Cl)c1)CC(=O)c1ccc(Br)cc1 | > 100 | > 100 | > 100 | > 100 | > 100 | > 100 | > 100 | > 100 | – | – | – | – | – | – | – | – | –
CCC1CC2C(=O)N(c3ccccc3)C(=O)C2c2[nH]c3ccccc3c21 (centres undefined) | – | > 100 | 44.9 | > 100 | 71.1 | 47.6 | 47.8 | – | – | – | – | > 100 | – | – | – | – | –
C=C1C(=O)OC2C/C(C)=C/CC/C(C)=C/CCC3(COC(C)=O)OC3CC12 (centres undefined) | 3.87 | 25.5 | 19.2 | 32.7 | 34.1 | 17.4 | 23 | 9.48 | – | – | – | – | – | – | – | – | –
O=S(=O)(NCCNc1nccc(-c2c(-c3ccc(F)c(O)c3)nc3sccn23)n1)c1ccc(F)cc1 | – | 15.1 | 59.5 | > 100 | 71.5 | > 100 | 18 | 31.6 | 4.02 | 2.83 | 3.21 | > 100 | 4.09 | 2.55 | 1.34 | 0.675 | 4.02
N/N=C1\C(=O)N(C2CCCCCC2)C(=O)C1C(=O)NC1CCCCCC1 (centres undefined) | – | 42 | > 100 | > 100 | 65.6 | > 100 | – | – | – | – | – | – | – | – | – | – | –
COC12CCC(=O)C=C1c1ccccc1N2C(C)=O (centres undefined) | > 100 | > 100 | > 100 | > 100 | > 100 | > 100 | – | > 100 | – | – | – | > 100 | – | – | – | – | –
Cc1ccccc1NC(=O)c1cc(-c2ccc([N+](=O)[O-])cc2)nc(=S)[nH]1 | > 100 | > 100 | > 100 | > 100 | > 100 | > 100 | > 100 | > 100 | – | – | – | – | – | – | – | – | –
N#Cc1ccccc1C(Cl)(Cl)c1cnccn1 | – | > 100 | – | > 100 | > 100 | 32.3 | 61 | > 100 | – | – | – | > 100 | – | – | – | – | –
CC1=C[C@H]2c3c([nH]c4ccccc34)C(c3c[nH]c4ccccc34)[C@H]2CC1 (some centres undefined) | 11.9 | – | – | 12.7 | 12.9 | 11.2 | 5.83 | 26.3 | – | – | – | – | – | – | – | – | –
CCCNC(=O)C1C(=O)C(=O)N(CCC)C1=O (centres undefined) | > 100 | > 100 | > 100 | > 100 | > 100 | > 100 | > 100 | > 100 | – | – | – | – | – | – | – | – | –
